Source: PubChem BioAssay AID1919001 (Molecular Pharmacology Branch, DTP, NCI, 2023)
Where “and” joins values, the source holds several entries; their conditions need not be identical. Equal entries are not always repeated. Blank lines part the entries; values can stand above or below the molecule they belong to.

Tested on: 699152-130-R-J1-PDC complex spheroid growth
Assay: Anticancer human tumor 699152-130-R-J1-PDC patient-derived pancreatic carcinoma cell line growth inhibition [AhR]
Settings: for viability, T/C: stronger effect = lower value
Excerpt: Multicellular complex tumor spheroid response to aryl hydrocarbon receptor antagonists in combination with a variety of drugs and investigational agents in selected tumor cell lines
The current study was undertaken to assess response to aryl hydrocarbon receptor antagonists in combination with standard-of-care drugs and investigational agents in solid tumor complex spheroid models. Complex spheroids include a stromal component modeled by human endothelial cells (HUVEC) and fibroblasts modeled by human mesenchymal stem cells (MSCs). The concentration ranges selected for each drug and investigational agent were based upon clinically achievable concentrations if the clinical Cmax of the agent was known.
Compounds. The drugs and investigational agents: BAY 2416964 (NSC825713), GNF351 (NSC835774), CH-223191 (NSC835775), CPI-455 (NSC825282), aza-TdCyd (NSC777586), decitabine (NSC127716), belinostat (NSC758774), entinostat (NSC756642), pevonedistat (NSC761192), tazemetostat (NSC777109), talazoparib (NSC765396), olaparib (NSC753686), selinexor (NSC780203), nedisertib (M3814, NSC802822), bortezomib (NSC756655), venetoclax (NSC766270), doxorubicin (NSC123127), elimusertib (BAY189344, NSC800525), ceralasertib (AZD6738, NSC777638), TAK-243 (NSC785004), alisertib (NSC759677), etoposide (NSC141540), topotecan (NSC609699), eribulin (NSC707389), gemcitabine (NSC613327), carboplatin (NSC241240), cisplatin (NSC119875), and SN-38 (NSC673596) were obtained from the National Cancer Institute (NCI) Developmental Therapeutics Program Chemical Repository (32). The FDA-approved anticancer drug set is available from the Developmental Therapeutics Program at https://dtp.cancer.gov/organization/dscb/obtaining/available plates.htm. […] The stock solutions were prepared in dimethyl sulfoxide (DMSO, Sigma-Aldrich, St. Louis, MO, cat. D2650), except for the platinum compounds which were prepared in saline (Quality Biological, Gaithersburg, MD, cat. 114-055-101), at 800-fold the tested concentration and stored at -70 degrees C prior to their use. All drugs and investigational agents were tested over a range starting from a high concentration at or near the clinical Cmax and decreasing in half-log increments. If the clinical Cmax for an agent had not been determined, the highest concentration tested was 10 microM (Table 1).
Cell Culture. All cells were maintained in an incubator at 37 degrees C and 5% CO2 with 95% humidity. The PDC lines were cultured according to standard operating procedures established by the NCI PDMR (https://pdmr.cancer.gov). Briefly, all PDCs were thawed and cultured in Matrigel-coated flasks prepared with a working solution of 1X Ham's F-12 nutrient mix, without supplementation (Invitrogen, Waltham, MA, cat. 11765054), 100 U/mL penicillin-streptomycin (Invitrogen, cat. 15140122), and 2.5% Matrigel (Corning Inc., Corning, NY, cat. 354248) for the first three passages. All PDCs were cultured in complete DMEM/F-12 media containing advanced DMEM/F-12 (Invitrogen, cat. 12634028), 4.9% defined fetal bovine serum, heat inactivated (HyClone Laboratories Inc., Logan, UT, cat. SH30070.03HI), 389 ng/mL hydrocortisone (Sigma-Aldrich, cat. H4001), 9.7 ng/mL human EGF recombinant protein (Invitrogen, cat. PHG0313), 23.4 microg/mL adenine (Sigma-Aldrich, cat. A2786), 97.3 U/mL penicillin-streptomycin (Invitrogen, cat. 15140122), 1.9 mM L-glutamine (Invitrogen, cat. 25030081), and 9.7 microM Y-27632 dihydrochloride (Tocris Bioscience, Bristol, United Kingdom, cat. 1254). The PDCs were cultured in complete DMEM/F12 media without 10 microM Y-27632 dihydrochloride for at least two passages prior to the screen. The established cell lines NCI-H1341 and […] were cultured in DMEM/F-12, HEPES (Invitrogen, cat. 11330032), 5% defined fetal bovine serum (HyClone Laboratories Inc., cat. SH30070.03), ITS premix universal culture supplement [insulin (5 microg/mL), transferrin (5 microg/mL), and selenious acid (5 ng/mL)] […]

[1] = curve of first compound, second compound 0.1 µM
[2] = curve of first compound, second compound 0.316 µM
[3] = curve of first compound, second compound 1 µM
[4] = curve of first compound, second compound 3.16 µM
[5] = curve of first compound, second compound 10 µM
[6] = second compound 0.1 µM, first compound 0.0316 µM
[7] = second compound 0.1 µM, first compound 0.1 µM
[8] = second compound 0.1 µM, first compound 0.316 µM
[9] = second compound 0.1 µM, first compound 1 µM
[10] = second compound 0.1 µM, first compound 3.16 µM
[11] = second compound 0.1 µM, first compound 10 µM
[12] = second compound 0.316 µM, first compound 0.0316 µM
[13] = second compound 0.316 µM, first compound 0.1 µM
[14] = second compound 0.316 µM, first compound 0.316 µM
[15] = second compound 0.316 µM, first compound 1 µM
[16] = second compound 0.316 µM, first compound 3.16 µM
[17] = second compound 0.316 µM, first compound 10 µM
[18] = second compound 1 µM, first compound 0.0316 µM
[19] = second compound 1 µM, first compound 0.1 µM
[20] = second compound 1 µM, first compound 0.316 µM
[21] = second compound 1 µM, first compound 1 µM
[22] = second compound 1 µM, first compound 3.16 µM
[23] = second compound 1 µM, first compound 10 µM
[24] = second compound 3.16 µM, first compound 0.0316 µM
[25] = second compound 3.16 µM, first compound 0.1 µM
[26] = second compound 3.16 µM, first compound 0.316 µM
[27] = second compound 3.16 µM, first compound 1 µM
[28] = second compound 3.16 µM, first compound 3.16 µM
[29] = second compound 3.16 µM, first compound 10 µM
[30] = second compound 10 µM, first compound 0.0316 µM
[31] = second compound 10 µM, first compound 0.1 µM
[32] = second compound 10 µM, first compound 0.316 µM
[33] = second compound 10 µM, first compound 1 µM
[34] = second compound 10 µM, first compound 3.16 µM
[35] = second compound 10 µM, first compound 10 µM
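Note: compound exposure lasted 7 days after spheroids had grown for 3 days.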

IC50 [1]: 4.78 µM | IC50 [2]: 4.07 µM | IC50 [3]: 5.29 µM | IC50 [4]: 5.32 µM | IC50 [5]: 4.79 µM
SMILES: COc1ccc([C@@H](O)c2cc(-c3ncnc4cc(N5CCOCC5)ccc34)c(F)cc2Cl)nn1 + Cc1ccccc1N=Nc1ccc(NC(=O)c2ccnn2C)c(C)c1
viability, T/C [6]: 93.5% | viability, T/C [7]: 108% | viability, T/C [8]: 90% | viability, T/C [9]: 81.4% | viability, T/C [10]: 61.7% | viability, T/C [11]: 30.5% | viability, T/C [12]: 83.7% | viability, T/C [13]: 91.8% | viability, T/C [14]: 97.5% | viability, T/C [15]: 80% | viability, T/C [16]: 55.6% | viability, T/C [17]: 32.3% | viability, T/C [18]: 96.8% | viability, T/C [19]: 91.8% | viability, T/C [20]: 87.2% | viability, T/C [21]: 79.5% | viability, T/C [22]: 61.1% | viability, T/C [23]: 35.6% | viability, T/C [24]: 93.8% | viability, T/C [25]: 98.4% | viability, T/C [26]: 90% | viability, T/C [27]: 86.5% | viability, T/C [28]: 61.9% | viability, T/C [29]: 35.3% | viability, T/C [30]: 107% | viability, T/C [31]: 111% | viability, T/C [32]: 110% | viability, T/C [33]: 94.5% | viability, T/C [34]: 61% | viability, T/C [35]: 31.1%

IC50 [1]: > 10 µM | IC50 [2]: > 10 µM | IC50 [3]: > 10 µM | IC50 [4]: > 10 µM | IC50 [5]: > 10 µM
SMILES: COc1cc(Nc2ncc3c(n2)-c2ccc(Cl)cc2C(c2c(F)cccc2OC)=NC3)ccc1C(=O)O + CC(CO)NC(=O)c1cc(-c2ccc(Cl)cc2)nn(-c2cnn(C)c2)c1=O
viability, T/C [6]: 92.5% | viability, T/C [7]: 79.1% | viability, T/C [8]: 78.6% | viability, T/C [9]: 65.3% | viability, T/C [10]: 63.8% | viability, T/C [11]: 62.3% | viability, T/C [12]: 97% | viability, T/C [13]: 94.4% | viability, T/C [14]: 74.5% | viability, T/C [15]: 63% | viability, T/C [16]: 65.1% | viability, T/C [17]: 60.9% | viability, T/C [18]: 95% | viability, T/C [19]: 84% | viability, T/C [20]: 86% | viability, T/C [21]: 65.8% | viability, T/C [22]: 64.1% | viability, T/C [23]: 59.7% | viability, T/C [24]: 85% | viability, T/C [25]: 76.1% | viability, T/C [26]: 85.3% | viability, T/C [27]: 59.6% | viability, T/C [28]: 60.2% | viability, T/C [29]: 56.1% | viability, T/C [30]: 78.7% | viability, T/C [31]: 85.8% | viability, T/C [32]: 83% | viability, T/C [33]: 73.1% | viability, T/C [34]: 69.7% | viability, T/C [35]: 58.9%

IC50 (curve of compound): > 3 µM
SMILES: O=C(C=Cn1cnc(-c2cc(C(F)(F)F)cc(C(F)(F)F)c2)n1)NNc1cnccn1
viability, T/C (compound 0.00949 µM): 99.1% and 89.9% and 89% | viability, T/C (compound 0.03 µM): 98.2% and 95.7% and 107% | viability, T/C (compound 0.0949 µM): 92% and 79.8% and 82.9% | viability, T/C (compound 0.3 µM): 73.7% and 77.4% and 74.8% | viability, T/C (compound 0.949 µM): 69.4% and 79.6% and 90% | viability, T/C (compound 3 µM): 77.4% and 72.9% and 69.9%

IC50 [1]: > 10 µM | IC50 [2]: 6.41 µM | IC50 [3]: > 10 µM | IC50 [4]: > 10 µM | IC50 [5]: > 10 µM
SMILES: COc1cc(Nc2ncc3c(n2)-c2ccc(Cl)cc2C(c2c(F)cccc2OC)=NC3)ccc1C(=O)O + Cc1ccccc1N=Nc1ccc(NC(=O)c2ccnn2C)c(C)c1
viability, T/C [6]: 89.9% | viability, T/C [7]: 80.2% | viability, T/C [8]: 65.3% | viability, T/C [9]: 54.5% | viability, T/C [10]: 54.4% | viability, T/C [11]: 56.6% | viability, T/C [12]: 83.1% | viability, T/C [13]: 68.7% | viability, T/C [14]: 65.5% | viability, T/C [15]: 59.5% | viability, T/C [16]: 51.7% | viability, T/C [17]: 48.4% | viability, T/C [18]: 86.8% | viability, T/C [19]: 71.7% | viability, T/C [20]: 74.3% | viability, T/C [21]: 60.5% | viability, T/C [22]: 56.9% | viability, T/C [23]: 51.7% | viability, T/C [24]: 86.3% | viability, T/C [25]: 82.6% | viability, T/C [26]: 68.9% | viability, T/C [27]: 61.1% | viability, T/C [28]: 54.2% | viability, T/C [29]: 50.1% | viability, T/C [30]: 91.7% | viability, T/C [31]: 94.7% | viability, T/C [32]: 74.8% | viability, T/C [33]: 64.8% | viability, T/C [34]: 66.8% | viability, T/C [35]: 63.6%
